Source: patent publication US11001605B2, “Cyclic dinucleotides containing benzimidazole, method for the production of same, and use of same to activate stimulator of interferon genes (sting)-dependent signaling pathways” (BIOLOG LIFE SCIENCE INSTITUTE GmbH & Co. KG, priority 2016, dated 2021)

Tests used:
[1] = Lipophilicity determination by gradient HPLC (log k′g); assay type: physicochemical; details: HPLC gradient 1, RP-18, triethylammonium phosphate buffer pH 6.5 / methanol (ion pair chromatography)
Experimental: Gradient 1: Stationary phase: Polygosil 60-10, RP-18; 250×4 mm (Macherey & Nagel, DOren, Germany). Mobile phase A: 10 ml 1 M triethylammonium phosphate buffer (TEAP), pH 6.5+990 ml methanol. Mobile phase B: 10 ml 1 M TEAP, pH 6.5+990 ml H2O. Time program: 0 min: 100% B; 60 min: 100% A; 65 min: 100% A; 70 min: 100% B; 90 min: 100% B. Flow rate: 1.0 ml/min.
The octanol/water coefficient Log P is the commonly accepted indicator for the expected property of a given chemical entity to pass cellular membranes by passive diffusion. However, its practical determination for polar compounds such as multiply charged nucleotides is difficult in reality. Often, the information about membrane permeability must be received by fragmental analysis or other calculations.
Given this fact, an established HPLC method is used here, which is based on the measurement of retention on a reversed phase column^7. In contrast to Log P, this method yields the indicator log k′g, which allows for a ranking of different nucleotides of the same charge according to their lipophilicity.
Since CDNs are twofold negatively charged molecules which are only very insufficiently retarded on a reversed phase HPLC column, the determinations were performed in presence of the lipophilic triethylammonium cation (ion pair chromatography).
According to the established method^7 HPLC gradient 1 was used for the determination of lipophilicity.

STING signalling pathway = assay: Interferon-β promoter SEAP reporter assay in THP1-Blue cells; assay type: cell-based, human; details: 0, 10, 20, 40 μg/ml, 24 hours
Experimental: Legend for Synthesis 4: THP1-Blue™ cells ((THP1-ISG); InvivoGen, catalogue number: thp-isg; concentration: 5×10^5/ml, 180 μl/well (96-well-plate) were incubated with inventive CDNs in different concentrations (0 μg/ml; 10 μg/ml; 20 μg/ml; 40 μg/ml) in medium (RPMI-1640, 2 mM L-glutamine, 1.5 g/I sodium bicarbonate, 4.5 g/I glucose, 10 mM HEPES, 1 mM sodium pyruvate, 10% FCS, 100 μg/ml Zeocin™, 110 μg/ml Normocin™, Pen-Strep 50 U/ml) for 24 hours at 37° C. in 5% CO2. The quantification was performed with SEAP detection reagent QUANTI-Blue™ (InvivoGen; catalogue number: rep-qb1; incubation time: 30 min at 37° C. in 5% CO2) by optical density (OD) determination at 625 nm.
(§1) Legend for Synthesis 5: THP1-Blue™ cells ((THP1-ISG); InvivoGen, catalogue number: thp-isg; concentration: 5×10^5/ml, 180 μl/well (96-well-plate) and THP1 Dual™ KO STING cells ((STING KO) InvivoGen, catalogue number: thpd-kostg; concentration: 5×10^5/ml, 180 μl/well (96-well-plate) were incubated with inventive CDNs (concentration 40 μg/ml each) in medium (RPMI-1640, 2 mM L-glutamine, 1.5 g/I sodium bicarbonate, 4.5 g/I glucose, 10 mM HEPES, 1 mM sodium pyruvate, 10% FCS, 100 μg/mL Zeocin™, 110 μg/mL Normocin™, Pen-Strep 50 U/mL) for 24 hours at 37° C. in 5% CO2. For incubations with THP1 Dual™ KO STING cells, 10 μg/ml of blasticidin were added to the medium. Quantification was performed with SEAP detection reagent QUANTI-Blue™ (InvivoGen; catalogue number: rep-qb1; incubation time: 15 min at 37° C. in 5% CO2) by optical density (OD) determination at 625 nm.
Cell line: THP1-Blue™ cells (InvivoGen, catalogue number: thp-isg) are derived from THP1 cells. THP1-Blue™ cells in a cell culture dish are stimulated by the administration of a CDN according to the invention or a buffer control.
In these genetically modified cells, the gene for secreted embryonic alkaline phosphatase (SEAP) is under the control of an interferon-β promoter.
After stimulation of the cells with an inventive CDN, the supernatant of the cell culture was removed and the enzymatic activity of SEAP was measured photometrically in a colorimetric assay by measuring the extinction at 625 nm (optical density; OD 625 nm).
Administration of an inventive CDN induces an increase in the activity of SEAP, which is a measure of the activity of the STING signalling pathway.

THP1 Dual KO STING cells = assay: SEAP reporter assay in THP1 Dual KO STING control cells; assay type: cell-based, human; details: 40 μg/ml, 24 hours (FIG. 2)
Experimental: as §1

[2] = test system: STING-induced dimerisation and phosphorylation of IRF3, STING-induced phosphorylation of TBK1; assay: STING-induced dimerisation and phosphorylation of IRF3 and phosphorylation of TBK1, Western Blot of THP-1 cell lysate; assay type: cell-based, human; details: THP-1 cells, native gel and SDS-PAGE Western Blot, versus buffer control
Experimental: Cell line: THP-1 cells (Sigma Cat. No. 88081201-1VL) were isolated from peripheral blood of a patient with acute leukaemia.
After application of an inventive CDN or a buffer control to THP1 cells in a culture dish a cell lysate is prepared, of which one part is applied to a native polyacrylamide gel and the other part to two denaturing polyacrylamide gels (SDS-PAGE). The developed gels are analysed with Western Blot technique.
In case of the native gel an IRF3 antibody is used.
The presence of an inventive CDN results in the formation of a second band, showing a running behaviour, which corresponds to the doubled molecular weight of IRF3. This band represents the dimer of IRF3, that has been formed under the influence of an inventive CDN.
In case of the two denaturing gels, either an antibody against phosphorylated IRF3 or an antibody against phosphorylated TBK1 is used. In the buffer control for each of the gels only a very weak band is detected. After application of an inventive CDN, the intensities of these bands are much more pronounced. This increase of intensity reflects the phosphorylation of IRF3 and of TBK1, respectively, induced by the inventive CDNs. Both, the dimerisation of IRF3 and the detected phosphorylations are a direct result of STING activation.

SMILES | SEAP activity, elevated OD at 625 nm, concentration-dependent (STING signalling pathway) | effect of elevated OD at 625 nm in STING knock out cells (THP1 Dual KO STING cells) | STING-induced dimerisation of IRF3, phosphorylation of IRF3 and phosphorylation of TBK1 [2] | further results
Nc1nc2c(ncn2[C@@H]2O[C@@H]3COP(=O)(S)OC4C(O)[C@H](n5cnc6ccccc65)O[C@@H]4COP(=O)(S)OC2C3O)c(=O)[nH]1 (single isomer, unassigned) [Compound 23, MI2, Cyclic (guanosine-(2′→5′)-monophosphorothioate-benzimidazole riboside-(3′→5′)-monophosphorothioate)] | positive |  |  | log k′g ([1]; listed as 23, MI2): 1.658
Nc1nc2c(ncn2[C@@H]2O[C@@H]3COP(=O)(S)OC4C(O)[C@H](n5cnc6cc(Cl)c(Cl)cc65)O[C@@H]4COP(=O)(S)OC2C3O)c(=O)[nH]1 (single isomer, unassigned) [Compound 29, MI2, Cyclic (guanosine-(2′→5′)-monophosphorothioate-5,6-dichlorobenzimidazole riboside-(3′→5′)-monophosphorothioate)] | positive | no longer observed |  | log k′g ([1]; listed as 29, MI2): 2.403
Nc1ncnc2c1ncn2[C@@H]1O[C@@H]2COP(=O)(S)OC3C(O)[C@@H](COP(=O)(S)OC2C1O)O[C@H]3n1cnc2ccccc21 (single isomer, unassigned) [Compound 98, MI1, Cyclic (adenosine-(3′→5′)-monophosphorothioate-benzimidazole riboside-(2′→5′)-monophosphorothioate)] | positive | no longer observed |  | log k′g ([1]; listed as 98, MI1): 1.524
O=P1(S)OC[C@H]2O[C@@H](n3cnc4ccccc43)C(O)C2OP(=O)(S)OC[C@H]2O[C@@H](n3cnc4ccccc43)C(O)C2O1 (some centres unmarked) [Compound 4, cyclic (benzimidazole riboside- (3′ −> 5′)-monophosphorothioate- benzimidazole riboside-(3′ −> 5′)- monophosphorothioate)] |  |  | positive | 
O=P1(S)OC[C@H]2O[C@@H](n3cnc4cc(Cl)c(Cl)cc43)C(O)C2OP(=O)(S)OC[C@H]2O[C@@H](n3cnc4cc(Cl)c(Cl)cc43)C(O1)C2O (some centres unmarked) [Compound 11, cyclic (5,6-dichlorobenzimidazole riboside-(2′ −> 5′)-monophosphorothioate-(5,6-dichlorobenzimidazole riboside-(3′ −> 5′)-monophosphorothioate)] |  |  | positive | 
Nc1nc2c(ncn2[C@@H]2O[C@@H]3COP(=O)(S)OC4C(O)[C@H](n5cnc6cc(Cl)c(Cl)cc65)O[C@@H]4COP(=O)(S)OC2C3O)c(=O)[nH]1 (some centres unmarked) [Compound 29, cyclic (guanosine-(2′ −> 5′)-monophosphorothioate-5,6-dichlorobenzimidazole riboside-(3′ −> 5′)-monophosphorothioate)] |  |  | positive | 
Nc1nc2c(ncn2[C@@H]2O[C@@H]3COP(=O)(S)OC4C(O)[C@@H](COP(=O)(S)OC2C3O)O[C@H]4n2cnc3cc(Cl)c(Cl)cc32)c(=O)[nH]1 (some centres unmarked) [Compound 30, cyclic (guanosine-(2′ −> 5′)-monophosphorothioate-5,6-dichlorobenzimidazole riboside-(2′ −> 5′)-monophosphorothioate)] |  |  | positive | 
Nc1ncnc2c1ncn2[C@@H]1O[C@@H]2COP(=O)(O)OC3C(O)[C@H](n4cnc5ccccc54)O[C@@H]3COP(=O)(O)OC2C1F (some centres unmarked) [Compound 79, cyclic (2′-fluoro-2′-deoxyadenosine-(3′ −> 5′)-monophosphate-benzimidazole riboside-(3′ −> 5′)-monophosphate)] | positive | no longer observed |  | log k′g [1]: 1.322
Nc1ncnc2c1ncn2[C@@H]1O[C@@H]2COP(=O)(O)OC3C(O)[C@H](n4cnc5cc(Cl)c(Cl)cc54)O[C@@H]3COP(=O)(O)OC2C1F (some centres unmarked) [Compound 81, cyclic (2′-fluoro-2′-deoxyadenosine-(3′ −> 5′)-monophosphate-5,6-dichlorobenzimidazole riboside-(3′ −> 5′)-monophosphate)] | positive |  |  | log k′g [1]: 2.039
